Test results published in article PMC8042013 (Nature Communications, 2021).

Target: T1, OsCERK1-ECD (Oryza sativa, UniProt A0A0P0XII1)
T1 construct: gene CERK1; N-terminal gp67 signal peptide for secretion, C-terminal His6; baculovirus, Trichoplusia ni High Five cells; secreted soluble protein
T1 sequence (A0A0P0XII1 19-240 limits assumed): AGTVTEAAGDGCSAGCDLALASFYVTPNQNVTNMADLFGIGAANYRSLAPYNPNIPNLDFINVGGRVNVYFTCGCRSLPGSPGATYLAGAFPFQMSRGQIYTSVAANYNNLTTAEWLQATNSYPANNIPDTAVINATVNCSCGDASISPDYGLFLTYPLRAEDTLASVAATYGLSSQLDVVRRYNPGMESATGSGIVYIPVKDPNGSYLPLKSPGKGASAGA
Assay: microscale thermophoresis, label-free
Assay type: binding
Conditions: 50 mM Tris-HCl pH 7.8, 150 mM NaCl, 10 mM MgCl2, 0.05% Tween-20

`OC[C@H]1O[C@@H](O[C@H]2[C@H](O)[C@@H](O)[C@H](O[C@H]3[C@H](O)[C@@H](O)[C@H](O[C@H]4[C@H](O)[C@@H](CO)OC(O)[C@@H]4O)O[C@@H]3CO)O[C@@H]2CO)[C@H](O)[C@@H](O)[C@@H]1O` (stereo partly drawn) [BGTETB, 3^1-β-D-cellotriosyl-glucose] gave a Kd of 2900 ± 570 nM.
`OC[C@H]1O[C@@H](O[C@@H]2[C@@H](O)[C@H](O[C@H]3[C@H](O)[C@@H](O)C(O)O[C@@H]3CO)O[C@H](CO)[C@H]2O)[C@H](O)[C@@H](O)[C@@H]1O` (stereo partly drawn) [BGTRIA, 3^2-β-D-glucosyl-cellobiose] showed a Kd of 4380 ± 580 nM.
With `OC[C@H]1O[C@@H](O[C@H]2[C@H](O)[C@@H](O)[C@H](O[C@H]3[C@H](O)[C@@H](CO)OC(O)[C@@H]3O)O[C@@H]2CO)[C@H](O)[C@@H](O)[C@@H]1O` (stereo partly drawn) [BGTRIB, 3^1-β-D-cellobiosyl-glucose] the Kd was 1950 ± 450 nM.
Compound `OC[C@H]1O[C@@H](O[C@H]2[C@H](O)[C@@H](O)[C@H](O[C@H]3[C@H](O)[C@@H](O)[C@H](O[C@H]4[C@H](O)[C@@H](O)C(O)O[C@@H]4CO)O[C@@H]3CO)O[C@@H]2CO)[C@H](O)[C@@H](O)[C@@H]1O` (some centres unmarked) [CTE, cellotetraose] has a Kd of 2840 ± 890 nM.
In the case of `OC[C@H]1O[C@@H](O[C@H]2[C@H](O)[C@@H](O)[C@H](O[C@H]3[C@H](O)[C@@H](O)C(O)O[C@@H]3CO)O[C@@H]2CO)[C@H](O)[C@@H](O)[C@@H]1O` (some centres unmarked) [CTR, cellotriose], the Kd is reported as 4280 ± 1670 nM.
